Read-outs that look alike come from different tables or passages of the source.
What was measured:
GluN2C/2D over GluN2A/2B = settings: cited from earlier work
[1] = system: cultured rat cortical neurons transfected with GFP alone; test: Agonist-evoked NMDAR currents in transfected cultured cortical neurons; settings: 20 μM compound; NMDA and glycine pressure pulses
[2] = system: GluN2C-expressing cultured rat cortical neurons; test: as above; settings: 20 μM compound; NMDA and glycine pressure pulses
GluN1/GluN2D receptors = GluN1/GluN2D receptors (Rattus norvegicus, UniProt Q62645); settings: for agonist pEC50 at GluN1/GluN2D: mean (95% CI); for EC50: read-out: agonist EC50 at GluN1/GluN2D
Chain of GluN1/GluN2D receptors (Q62645 28-1323, other chains not shown): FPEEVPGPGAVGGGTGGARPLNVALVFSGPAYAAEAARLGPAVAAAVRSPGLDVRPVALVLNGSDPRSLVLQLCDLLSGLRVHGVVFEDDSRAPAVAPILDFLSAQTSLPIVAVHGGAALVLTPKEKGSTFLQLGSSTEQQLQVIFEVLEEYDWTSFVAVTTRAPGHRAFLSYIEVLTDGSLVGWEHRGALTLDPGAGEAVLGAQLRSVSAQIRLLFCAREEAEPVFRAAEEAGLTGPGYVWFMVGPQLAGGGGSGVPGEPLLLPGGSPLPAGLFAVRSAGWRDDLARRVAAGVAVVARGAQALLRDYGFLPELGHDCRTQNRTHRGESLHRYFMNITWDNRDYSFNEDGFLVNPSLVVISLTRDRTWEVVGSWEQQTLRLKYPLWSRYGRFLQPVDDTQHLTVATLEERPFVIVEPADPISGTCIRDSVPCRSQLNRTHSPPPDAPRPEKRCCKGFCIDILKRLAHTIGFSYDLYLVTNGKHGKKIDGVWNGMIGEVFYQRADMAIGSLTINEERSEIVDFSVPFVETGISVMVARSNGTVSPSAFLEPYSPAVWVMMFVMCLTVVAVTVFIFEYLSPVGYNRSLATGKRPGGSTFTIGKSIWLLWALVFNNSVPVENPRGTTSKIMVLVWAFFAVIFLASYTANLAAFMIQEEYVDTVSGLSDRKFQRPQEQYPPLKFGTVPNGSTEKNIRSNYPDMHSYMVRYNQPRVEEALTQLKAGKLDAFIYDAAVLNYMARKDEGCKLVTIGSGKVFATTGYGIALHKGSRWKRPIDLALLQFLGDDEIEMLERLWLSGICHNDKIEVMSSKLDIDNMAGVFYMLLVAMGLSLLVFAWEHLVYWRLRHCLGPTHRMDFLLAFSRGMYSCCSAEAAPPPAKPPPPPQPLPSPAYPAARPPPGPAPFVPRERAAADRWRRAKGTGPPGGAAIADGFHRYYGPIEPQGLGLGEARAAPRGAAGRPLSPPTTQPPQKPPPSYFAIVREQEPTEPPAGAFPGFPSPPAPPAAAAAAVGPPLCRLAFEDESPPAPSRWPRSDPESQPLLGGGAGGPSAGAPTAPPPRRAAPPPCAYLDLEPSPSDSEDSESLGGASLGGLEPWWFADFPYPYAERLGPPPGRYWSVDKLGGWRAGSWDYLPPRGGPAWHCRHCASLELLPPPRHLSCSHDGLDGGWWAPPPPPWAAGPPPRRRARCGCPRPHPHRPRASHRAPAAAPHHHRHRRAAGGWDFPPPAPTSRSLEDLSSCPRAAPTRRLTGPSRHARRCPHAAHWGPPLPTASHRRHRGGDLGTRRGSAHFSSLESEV

For `COc1ccc2nc(/C=C/c3cccc([N+](=O)[O-])c3)n(-c3ccc(C(=O)O)cc3)c(=O)c2c1` [QNZ46], the “selectivity for GluN2C/2D over GluN2A/2B” value (GluN2C/2D over GluN2A/2B) is listed as “up to 50 fold”.
In the case of `COc1ccc(OCC2c3cc(OC)c(OC)cc3CCN2C(=O)c2cccc(Cl)c2)cc1` (centres unmarked) [CIQ], the “agonist-evoked response, % of control, neurons transfected with GFP alone” value [1] is reported as 98 ± 1.8% and the “agonist-evoked response, % of control, GluN2C-expressing neurons” value [2] is reported as 145 ± 5.9%.
In the case of `Cc1ccc2[nH]c(=O)c(C3=NN(C(=O)CCC(=O)O)C(c4ccc(Br)cc4)C3)c(-c3ccccc3)c2c1` (centres unmarked) [DQP-1105], the “selectivity for GluN2C/2D over GluN2A/2B” value (GluN2C/2D over GluN2A/2B) is listed as “up to 50 fold”.
With `N[C@@H](CCC(=O)O)C(=O)O` [glutamate] the “agonist pEC50 at GluN1/GluN2D” value (GluN1/GluN2D receptors; absence of NAB-14) was −6.22 (−6.29, −6.14), the “agonist pEC50 at GluN1/GluN2D” value (GluN1/GluN2D receptors; presence of 3 μM NAB-14) was −6.15 (−6.36, −5.93) and the EC50 (GluN1/GluN2D receptors; absence of NAB-14) was 610 nM. It also gave an EC50 (GluN1/GluN2D receptors; presence of 3 μM NAB-14) of 710 nM.

From paper PMC5924706 (ACS chemical neuroscience, 2017)
